Measured values published in PubChem BioAssay (NCI).
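In this assay, cells in 96-well plates receive the compound at five concentrations for 48 hours. Endpoints are linearly interpolated between the surrounding concentrations. Abbreviation: GI50, concentration required for 50% inhibition of growth. TGI: concentration producing complete growth inhibition.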

Assays:
Assay in all cases: DTP human tumour cell line panel, 48 h
[1] = system: RPMI-8226 leukemia
[2] = system: NCI-H23 lung
[3] = system: NCI-H522 lung
[4] = system: K-562 leukemia
[5] = system: NCI/ADR-RES ovarian
[6] = system: SK-OV-3 ovarian
[7] = system: HOP-62 NSCLC
[8] = system: SF-539 CNS
[9] = system: RXF 393 renal
[10] = system: COLO 205 colon
[11] = system: MCF7 breast
[12] = system: MALME-3M melanoma
[13] = system: PC-3 prostate
[14] = system: EKVX NSCLC
[15] = system: HCT-116 colon
[16] = system: SW-620 colon
[17] = system: UACC-62 melanoma
[18] = system: SR leukemia
[19] = system: OVCAR-4 ovarian
[20] = system: UO-31 renal
[21] = system: LOX IMVI melanoma
[22] = system: HS 578T breast
[23] = system: MDA-MB-231 breast
[24] = system: SK-MEL-28 melanoma
[25] = system: TK-10 renal
[26] = system: ACHN renal
[27] = system: SNB-19 CNS
[28] = system: T-47D breast
[29] = system: M14 melanoma
[30] = system: NCI-H226 lung
[31] = system: OVCAR-8 ovarian
[32] = system: MOLT-4 leukemia
[33] = system: HCT-15 colon
[34] = system: UACC-257 melanoma
[35] = system: MDA-MB-435
[36] = system: SNB-75 CNS
[37] = system: SF-295 CNS
[38] = system: A498 renal
[39] = system: NCI-H460 lung
[40] = system: BT-549 breast
[41] = system: HT29 colon
[42] = system: 786-0 renal
[43] = system: HL-60(TB) leukemia
[44] = system: SK-MEL-2 melanoma
[45] = system: KM12 colon
[46] = system: A549 NSCLC
[47] = system: HCC-2998 colon
[48] = system: DU-145 prostate
[49] = system: SF-268 CNS
[50] = system: U251 CNS
[51] = system: IGROV1 ovarian
[52] = system: SK-MEL-5 melanoma
[53] = system: OVCAR-5 ovarian
[54] = system: HOP-92 NSCLC
[55] = system: SN12C renal
[56] = system: OVCAR-3 ovarian
[57] = system: CAKI-1 renal

## CCCCCCCCCCCCOC1C(C(CC(=O)N2CCN(c3cccc(C(F)(F)F)c3)CC2)NS(=O)(=O)c2cc(Cl)cc(Cl)c2)OC2OC(C)(C)OC21 (centres undefined)
[1]
  GI50: > 100 µM
  TGI: > 100 µM
[2]
  GI50: > 100 µM
  TGI: > 100 µM
[3]
  GI50: > 100 µM
  TGI: > 100 µM
[4]
  GI50: > 100 µM
  TGI: > 100 µM
[5]
  GI50: > 100 µM
  TGI: > 100 µM
[6]
  GI50: > 100 µM
  TGI: > 100 µM
[7]
  GI50: > 100 µM
  TGI: > 100 µM
[8]
  GI50: > 100 µM
  TGI: > 100 µM
[9]
  GI50: > 100 µM
  TGI: > 100 µM
[10]
  GI50: > 100 µM
  TGI: > 100 µM
[11]
  GI50: > 100 µM
  TGI: > 100 µM
[12]
  GI50: > 100 µM
  TGI: > 100 µM
[13]
  GI50: > 100 µM
  TGI: > 100 µM
[14]
  GI50: > 100 µM
  TGI: > 100 µM
[15]
  GI50: > 100 µM
  TGI: > 100 µM
[16]
  GI50: > 100 µM
  TGI: > 100 µM
[17]
  GI50: > 100 µM
  TGI: > 100 µM
[18]
  GI50: > 100 µM
  TGI: > 100 µM
[19]
  GI50: > 100 µM
  TGI: > 100 µM
[20]
  GI50: > 100 µM
  TGI: > 100 µM
[21]
  GI50: > 100 µM
  TGI: > 100 µM
[22]
  GI50: > 100 µM
  TGI: > 100 µM
[23]
  GI50: > 100 µM
  TGI: > 100 µM
[24]
  GI50: > 100 µM
  TGI: > 100 µM
[25]
  GI50: > 100 µM
  TGI: > 100 µM
[26]
  GI50: > 100 µM
  TGI: > 100 µM
[27]
  GI50: > 100 µM
  TGI: > 100 µM
[28]
  GI50: > 100 µM
  TGI: > 100 µM
[29]
  GI50: > 100 µM
  TGI: > 100 µM
[30]
  GI50: > 100 µM
  TGI: > 100 µM
[31]
  GI50: > 100 µM
  TGI: > 100 µM
[32]
  GI50: > 100 µM
  TGI: > 100 µM
[33]
  GI50: > 100 µM
  TGI: > 100 µM
[34]
  GI50: > 100 µM
  TGI: > 100 µM
[35]
  GI50: > 100 µM
  TGI: > 100 µM
[36]
  GI50: > 100 µM
  TGI: > 100 µM
[37]
  GI50: > 100 µM
  TGI: > 100 µM
[38]
  GI50: > 100 µM
  TGI: > 100 µM
[39]
  GI50: > 100 µM
  TGI: > 100 µM
[40]
  GI50: > 100 µM
  TGI: > 100 µM
[41]
  GI50: > 100 µM
  TGI: > 100 µM
[42]
  GI50: > 100 µM
  TGI: > 100 µM
[43]
  GI50: > 100 µM
  TGI: > 100 µM
[44]
  GI50: > 100 µM
  TGI: > 100 µM
[45]
  GI50: > 100 µM
  TGI: > 100 µM
[46]
  GI50: > 100 µM
  TGI: > 100 µM
[47]
  GI50: > 100 µM
  TGI: > 100 µM
[48]
  GI50: > 100 µM
  TGI: > 100 µM
[49]
  GI50: > 100 µM
  TGI: > 100 µM
[50]
  GI50: > 100 µM
  TGI: > 100 µM
[51]
  GI50: > 100 µM
  TGI: > 100 µM
[52]
  GI50: > 100 µM
  TGI: > 100 µM
[53]
  GI50: > 37.5 µM
  TGI: > 100 µM
[54]
  GI50: > 100 µM
  TGI: > 100 µM
[55]
  GI50: > 100 µM
  TGI: > 100 µM
[56]
  GI50: > 100 µM
  TGI: > 100 µM
[57]
  GI50: > 100 µM
  TGI: > 100 µM
